Test [1] deals with PC-3M-Luc-C6 prostate cells. The experiment in a line: In vitro PC-3M-Luc-C6 prostate cell proliferation assay in lipid reduced medium. The format is cell-based. The following applies: 96 h, read-out: pIC50 PC-3M-Luc-C6 prostate cell (converted).
The target of test [2] is T1, hFASN enzyme (full length) (Homo sapiens, UniProt P49327).
T1 construct: 10 μL hFASN enzyme (full length, 300 ng, purified in house); made in house
The experiment in a line: Fatty Acid Synthase (FASN) inhibition scintillation proximity assay. In kind it is biochemical. The following applies: for inhibition at 10 µM: read-out: Human FASN % inhibition @ 10 μM, 10 μM test compound; for IC50: read-out: Human FASN pIC50 (converted). In outline: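 Scintillation proximity format: in-house full-length enzyme, 300 ng per well, pH 7.5 phosphate/DTT buffer, ³H-acetyl-CoA and malonyl-CoA. Emission counted on LEADseeker at 610 nm at least 24 h after stopping.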

Test [3] concerns A2780 ovarian cells. The experiment in a line: A2780 ovarian cell proliferation assay in lipid reduced medium, without palmitate (MTT). The format is cell-based. The following applies: Homo sapiens, A2780, 96 h; read-out: pIC50 A2780 Ovarian Cell, Without Palmitate (converted).
The target in test [4] is Fatty Acid Synthase Keto-reductase Domain (FASN KR) (Homo sapiens, UniProt P49327). The experiment in a line: Fatty Acid Synthase keto-reductase domain (FASN KR) inhibition, NADPH oxidation at 340 nm.
Sequence of Fatty Acid Synthase Keto-reductase Domain (FASN KR) (P49327 whole entry, the tested form may be a part): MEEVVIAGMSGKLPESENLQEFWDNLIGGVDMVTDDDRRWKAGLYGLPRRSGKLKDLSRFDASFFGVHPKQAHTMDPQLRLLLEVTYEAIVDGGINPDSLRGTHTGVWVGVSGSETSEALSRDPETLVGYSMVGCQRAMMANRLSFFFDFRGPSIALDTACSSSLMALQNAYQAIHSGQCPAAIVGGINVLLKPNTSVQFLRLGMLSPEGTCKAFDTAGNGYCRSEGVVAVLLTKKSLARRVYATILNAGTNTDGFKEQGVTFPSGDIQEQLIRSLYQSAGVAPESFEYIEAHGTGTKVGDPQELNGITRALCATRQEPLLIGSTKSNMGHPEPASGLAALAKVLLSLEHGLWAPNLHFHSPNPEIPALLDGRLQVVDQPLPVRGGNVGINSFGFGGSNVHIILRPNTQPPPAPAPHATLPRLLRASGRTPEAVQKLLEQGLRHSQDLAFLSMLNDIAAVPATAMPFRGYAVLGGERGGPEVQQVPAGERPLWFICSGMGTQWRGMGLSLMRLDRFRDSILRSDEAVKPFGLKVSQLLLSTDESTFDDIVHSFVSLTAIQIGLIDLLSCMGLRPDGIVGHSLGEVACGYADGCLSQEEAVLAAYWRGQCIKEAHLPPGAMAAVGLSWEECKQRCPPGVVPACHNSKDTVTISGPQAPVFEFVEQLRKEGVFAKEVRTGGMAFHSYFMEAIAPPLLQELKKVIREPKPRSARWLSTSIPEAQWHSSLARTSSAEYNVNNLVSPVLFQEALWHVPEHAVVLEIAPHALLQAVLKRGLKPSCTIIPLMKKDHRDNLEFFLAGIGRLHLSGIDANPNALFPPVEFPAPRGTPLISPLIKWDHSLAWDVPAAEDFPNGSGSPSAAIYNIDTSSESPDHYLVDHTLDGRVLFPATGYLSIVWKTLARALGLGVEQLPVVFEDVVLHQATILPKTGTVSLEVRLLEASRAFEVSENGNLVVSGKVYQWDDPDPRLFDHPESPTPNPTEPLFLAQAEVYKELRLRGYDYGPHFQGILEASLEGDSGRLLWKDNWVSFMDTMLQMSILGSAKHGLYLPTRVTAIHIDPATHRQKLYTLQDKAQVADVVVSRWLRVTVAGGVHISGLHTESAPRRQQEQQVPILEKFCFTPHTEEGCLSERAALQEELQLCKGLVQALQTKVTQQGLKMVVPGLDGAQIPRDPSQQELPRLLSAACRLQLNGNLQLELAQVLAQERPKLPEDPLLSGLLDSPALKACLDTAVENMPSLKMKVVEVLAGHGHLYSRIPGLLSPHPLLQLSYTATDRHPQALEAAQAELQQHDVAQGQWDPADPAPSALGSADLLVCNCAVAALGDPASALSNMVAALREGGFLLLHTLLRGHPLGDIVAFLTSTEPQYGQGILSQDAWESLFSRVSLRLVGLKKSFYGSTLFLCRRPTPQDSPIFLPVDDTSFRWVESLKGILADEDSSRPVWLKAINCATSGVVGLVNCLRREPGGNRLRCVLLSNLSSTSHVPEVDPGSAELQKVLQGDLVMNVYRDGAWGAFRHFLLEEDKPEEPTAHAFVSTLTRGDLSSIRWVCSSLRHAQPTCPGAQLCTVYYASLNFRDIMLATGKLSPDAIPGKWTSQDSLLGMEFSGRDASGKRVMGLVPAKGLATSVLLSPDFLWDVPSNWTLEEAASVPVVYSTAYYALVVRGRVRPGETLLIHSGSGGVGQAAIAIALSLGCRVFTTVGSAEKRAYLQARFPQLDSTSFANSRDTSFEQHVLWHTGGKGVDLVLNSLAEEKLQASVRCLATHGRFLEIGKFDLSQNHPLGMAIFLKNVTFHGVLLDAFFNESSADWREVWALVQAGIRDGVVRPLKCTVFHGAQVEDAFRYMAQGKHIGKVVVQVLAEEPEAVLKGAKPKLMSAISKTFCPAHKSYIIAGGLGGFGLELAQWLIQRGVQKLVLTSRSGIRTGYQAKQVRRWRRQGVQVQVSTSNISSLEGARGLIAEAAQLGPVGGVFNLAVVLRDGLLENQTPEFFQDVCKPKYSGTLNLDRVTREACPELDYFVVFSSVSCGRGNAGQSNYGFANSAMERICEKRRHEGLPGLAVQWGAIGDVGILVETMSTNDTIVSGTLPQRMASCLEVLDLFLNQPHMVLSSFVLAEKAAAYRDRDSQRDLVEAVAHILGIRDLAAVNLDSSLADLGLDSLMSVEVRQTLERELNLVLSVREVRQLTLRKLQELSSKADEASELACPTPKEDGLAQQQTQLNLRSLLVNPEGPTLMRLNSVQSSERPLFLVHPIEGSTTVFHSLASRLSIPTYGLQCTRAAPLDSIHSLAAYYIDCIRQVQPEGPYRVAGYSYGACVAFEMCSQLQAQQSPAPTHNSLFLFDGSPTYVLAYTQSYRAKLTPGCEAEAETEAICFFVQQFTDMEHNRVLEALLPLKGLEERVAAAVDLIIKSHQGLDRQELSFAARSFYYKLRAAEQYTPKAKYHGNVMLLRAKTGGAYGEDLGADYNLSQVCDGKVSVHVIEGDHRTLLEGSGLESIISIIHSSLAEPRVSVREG
Procedure: After 20 minutes incubation at room temperature the plate was measured again (T2).
The decrease in absorbance was calculated as (Absorbance before incubation T1)−(Absorbance following incubation T2).
A plot of Controlmin versus test compound concentration was fitted to a 4-parameter logistic curve using a non-linear least squares regression method.
In test [5] the test system is A2780 ovarian cells. The experiment in a line: A2780 ovarian cell proliferation assay in lipid reduced medium, with palmitate (MTT). The format is cell-based. Particulars: Homo sapiens, A2780, 96 h; read-out: pIC50 A2780 Ovarian Cell, With Palmitate (converted). In outline:
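In this palmitate-supplemented format, compound dilutions (30 μM down to 0.01 μM) are added to cells in lipid-reduced serum with 25 μM palmitate, 0.2% fatty-acid-free BSA and 0.25% ethanol. After four days (96 h) MTT absorbance at 544 nm is recorded and fitted by minimum sum of squares.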

The test system of test [6] is LNCaP-Vancouver prostate cells. Nature of the test: In vitro LNCaP Vancouver prostate cell proliferation assay in lipid reduced medium. The format is cell-based. Particulars: read-out: pIC50 LNCaP_Vancouver prostate cell (converted).

T1 sequence (P49327 whole entry): as the sequence (P49327 whole entry, the tested form may be a part) above

Take `Cc1cc(-c2ccc3ccc(Cl)nc3c2)ccc1C1=NC2(CC2)C(=O)N1CC1CN(C(=O)C2(C)CC2)C1` [compound 594, 5-[4-(2-Chloroquinolin-7-yl)-2-methylphenyl]-6-({1-[(1-methylcyclopropyl)carbonyl]azetidin-3-yl}methyl)-4,6-diazaspiro[2.4]hept-4-en-7-one]: the IC50 in test [1] is approximately 0.589 µM; in test [2], 0.245 µM; in test [3] it was 0.617 µM; in test [4] it was 1.07 µM; in test [5], more than 10 µM; in test [6] it was 1.91 µM. The inhibition at 10 µM in test [2] was determined as 102%.

`Cc1cc(-c2cccc3nn(C)cc23)ccc1C1=NC2(CC2)C(=O)N1CC1CN(C(=O)C2(C)CC2)C1` [compound 598, 6-({1-[(1-Methylcyclopropyl)carbonyl]azetidin-3-yl}methyl)-5-[2-methyl-4-(2-methyl-2H-indazol-4-yl)phenyl]-4,6-diazaspiro[2.4]hept-4-en-7-one]: the IC50 in test [1] was approximately 0.355 µM; in test [2] it was 0.209 µM; in test [3], 0.2 µM; in test [4] it was 0.309 µM; in test [5], more than 10 µM; in test [6], 2.34 µM. In test [2], the inhibition at 10 µM stood at 103%.

As to `Cc1cc(-c2nn(C)c3ccccc23)ccc1C1=NC2(CC2)C(=O)N1CC1CN(C(=O)C2(C)CC2)C1` [compound 600, 6-({1-[(1-Methylcyclopropyl)carbonyl]azetidin-3-yl}methyl)-5-[2-methyl-4-(1-methyl-1H-indazol-3-yl)phenyl]-4,6-diazaspiro[2.4]hept-4-en-7-one], the IC50 in test [1] was 0.501 µM; in test [2] it was 0.417 µM; in test [3], approximately 0.603 µM; in test [4], 1.2 µM; in test [5], more than 10 µM; in test [6], 2.24 µM. The inhibition at 10 µM in test [2] was 98%.

For the compound `Cc1cc(-c2ccc(-c3ccn(CC4CC4)n3)cc2)ccc1C1=NC2(CC2)C(=O)N1CC1CN(C(=O)C2(C)CC2)C1` [compound 601, 5-{4′-[1-(Cyclopropylmethyl)-1H-pyrazol-3-yl]-3-methylbiphenyl-4-yl}-6-({1-[(1-methylcyclopropyl)carbonyl]azetidin-3-yl}methyl)-4,6-diazaspiro[2.4]hept-4-en-7-one], the IC50 was 0.316 µM in test [1]; 0.186 µM in test [2]; 0.219 µM in test [3]; 0.501 µM in test [4]; 3.89 µM in test [5]; 1.02 µM in test [6]. For the same compound, the inhibition at 10 µM in test [2] came to 100%.

As to `Cc1cc(-c2ccc(-c3ccn(CC(C)C)n3)cc2)ccc1C1=NC2(CC2)C(=O)N1CC1CN(C(=O)C2(C)CC2)C1` [compound 602, 6-({1-[(1-Methylcyclopropyl)carbonyl]azetidin-3-yl}methyl)-5-{3-methyl-4′-[1-(2-methylpropyl)-1H-pyrazol-3-yl]biphenyl-4-yl}-4,6-diazaspiro[2.4]hept-4-en-7-one], the IC50 in test [1] was 0.692 µM; in test [2], 0.324 µM; in test [3], 0.38 µM; in test [4], 1.55 µM; in test [5], 6.17 µM; in test [6], 1.48 µM. Also, the inhibition at 10 µM in test [2] amounted to 94%.

Regarding `Cc1cc(-c2ccc3ccc(C#N)nc3c2)ccc1C1=NC2(CC2)C(=O)N1CC1CN(C(=O)C2(C)CC2)C1` [compound 604, 7-{3-Methyl-4-[6-({1-[(1-methylcyclopropyl)carbonyl]azetidin-3-yl}methyl)-7-oxo-4,6-diazaspiro[2.4]hept-4-en-5-yl]phenyl}quinoine-2-carbonitrile], the IC50 in test [1] was 4.17 µM; in test [2], 1.12 µM; in test [3], 2.34 µM; in test [4] it was 8.71 µM; in test [5], approximately 10 µM; in test [6], more than 10 µM. The inhibition at 10 µM in test [2] was 84%.

Consider `Cn1nc(Cl)c2ccc(-c3ccc(C4=NC5(CC5)C(=O)N4CC4CN(C(=O)C5CC5)C4)c(F)c3)cc21` [compound 606, 5-[4-(3-Chloro-1-methyl-1H-indazol-6-yl)-2-fluorophenyl]-6-{[1-(cyclopropylcarbonyl)azetidin-3-yl]methyl}-4,6-diazaspiro[2.4]hept-4-en-7-one], for which the IC50 is 1.12 µM in test [1]; 0.209 µM in test [2]; 1.23 µM in test [3]; 1.45 µM in test [4]; more than 10 µM in test [5]; 2.4 µM in test [6]. Moreover, the inhibition at 10 µM in test [2] turned out to be 97%.

With `Cn1nc(Cl)c2cc(-c3ccc(C4=NC5(CC5)C(=O)N4CC4CN(C(=O)C5CC5)C4)c(F)c3)ccc21` [compound 607, 5-[4-(3-Chloro-1-methyl-1H-indazol-5-yl)-2-fluorophenyl]-6-{[1-(cyclopropylcarbonyl)azetidin-3-yl]methyl}-4,6-diazaspiro[2.4]hept-4-en-7-one], the IC50 in test [1] was 0.178 µM; in test [2], 0.158 µM; in test [3], 0.646 µM; in test [4], 0.537 µM; in test [5], more than 10 µM; in test [6] it was 1.1 µM. Further, in test [2], the inhibition at 10 µM amounted to 102%.

For the compound `Cn1nc(CO)c2cc(-c3ccc(C4=NC5(CC5)C(=O)N4CC4CN(C(=O)C5CC5)C4)c(F)c3)ccc21` [compound 609, 6-{[1-(Cyclopropylcarbonyl)azetidin-3-yl]methyl}-5-{2-fluoro-4-[3-(hydroxymethyl)-1-methyl-1H-indazol-5-yl]phenyl}-4,6-diazaspiro[2.4]hept-4-en-7-one], the IC50 is 0.661 µM in test [1]; 0.186 µM in test [2]; approximately 0.263 µM in test [3]; 0.676 µM in test [4]; more than 10 µM in test [5]; 4.79 µM in test [6]. Also, the inhibition at 10 µM in test [2] was 99%.

On to `Cc1cc(-c2cccc(NS(=O)(=O)C3CC3)c2)ccc1C1=NC2(CC2)C(=O)N1C[C@@H]1CCN(C(=O)C2CC2)C1` [compound 613, N-[4′-(6-{[(3R)-1-(Cyclopropylcarbonyl)pyrrolidin-3-yl]methyl}-7-oxo-4,6-diazaspiro[2.4]hept-4-en-5-yl)-3′-methylbiphenyl-3-yl]cyclopropanesulfonamide], for which the IC50 in test [1] is 0.0977 µM; in test [2] it was 0.115 µM; in test [3] it was 0.107 µM; in test [4], 0.229 µM; in test [5], more than 10 µM; in test [6] it was 0.851 µM. In test [2], the inhibition at 10 µM was found to be 102%.

For `O=C(Nc1cccc(-c2ccc(C3=NC4(CC4)C(=O)N3CC3CN(C(=O)C4CC4)C3)c(F)c2)c1)C1CC1` [compound 615, N-[4′-(6-{[1-(Cyclopropylcarbonyl)azetidin-3-yl]methyl}-7-oxo-4,6-diazaspiro[2.4]hept-4-en-5-yl)-3′-fluorobiphenyl-3-yl]cyclopropanecarboxamide], the IC50 is approximately 2.34 µM in test [1]; 0.324 µM in test [2]; 0.501 µM in test [3]; 1.05 µM in test [4]; more than 10 µM in test [5]; 3.24 µM in test [6]. Also, in test [2], the inhibition at 10 µM was 98%.

Take `N#Cc1ccc2ccc(-c3ccc(C4=NC5(CC5)C(=O)N4CC4CN(C(=O)C5CC5)C4)c(F)c3)cc2c1` [compound 616, 7-[4-(6-{[1-(Cyclopropylcarbonyl)azetidin-3-yl]methyl}-7-oxo-4,6-diazaspiro[2.4]hept-4-en-5-yl)-3-fluorophenyl]naphthalene-2-carbonitrile]: the IC50 in test [1] was more than 10 µM; in test [2], 0.513 µM; in test [3], 1.82 µM; in test [4] it was 1.55 µM; in test [5] it was more than 10 µM; in test [6], 3.16 µM. The inhibition at 10 µM in test [2] was found to be 94%.

For the compound `COc1ccc2ccc(-c3ccc(C4=NC5(CC5)C(=O)N4CC4CN(C(=O)C5(O)CC5)C4)c(F)c3)cc2c1` [compound 617, 5-[2-Fluoro-4-(7-methoxynaphthalen-2-yl)phenyl]-6-({1-[(1-hydroxycyclopropyl)carbonyl]azetidin-3-yl}methyl)-4,6-diazaspiro[2.4]hept-4-en-7-one], the IC50 is 0.646 µM in test [1]; 0.166 µM in test [2]; 0.245 µM in test [3]; 0.631 µM in test [4]; more than 10 µM in test [5]; 2.57 µM in test [6]. Besides, the inhibition at 10 µM in test [2] is 100%.

For the compound `COc1ccc2ccc(-c3ccc(C4=NC5(CC5)C(=O)N4CC4CN(C(=O)C5CC5)C4)c(F)c3)cc2c1` [compound 618, 6-{[1-(Cyclopropylcarbonyl)azetidin-3-yl]methyl}-5-[2-fluoro-4-(7-methoxynaphthalen-2-yl)phenyl]-4,6-diazaspiro[2.4]hept-4-en-7-one], the IC50 was approximately 2.57 µM in test [1]; 0.229 µM in test [2]; 0.794 µM in test [3]; 1.12 µM in test [4]; more than 10 µM in test [5]; 3.47 µM in test [6]. The inhibition at 10 µM in test [2] turned out to be 98%.

These data come from patent US10077261B2, “Imidazolin-5-one derivative useful as FASN inhibitors for the treatment of cancer” (Janssen Pharmaceutica NV, priority 2012, dated 2018).
